Data published in the supplement of paper PMC11061612.

Experiments:
Capivasertib = compound: C1CN(CCC1(C(=O)N[C@@H](CCO)C2=CC=C(C=C2)Cl)N)C3=NC=NC4=C3C=CN4 [Capivasertib]; conditions: max 3 µM
Procedure, shortened: (§1)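 Cancer cell lines were plated in 1536-well plates in 7.5 μl of DMEM/F12 or RPMI with 10% FBS and kept 24 hours at 37°C and 5% CO2 before 72 hours of dosing, with final DMSO typically 0.2%. CellTiter-Glo 2.0 luminescence measured viability, scaled between blank-well and DMSO-well means. Dose responses were fitted to a two-parameter logistic curve with a non-linear mixed effects model. This fit gives the single-agent IC50.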

AZD1775 = compound: C=CCn1c(=O)c2cnc(Nc3ccc(N4CCN(C)CC4)cc3)nc2n1-c1cccc(C(C)(C)O)n1 [AZD1775]
Procedure, shortened: as §1

Trametinib = compound: CC(=O)Nc1cccc(-n2c(=O)n(C3CC3)c(=O)c3c(Nc4ccc(I)cc4F)n(C)c(=O)c(C)c32)c1 [Trametinib]; conditions: max 1 µM
Procedure, shortened: as §1

Venetoclax = compound: CC1(C)CCC(CN2CCN(c3ccc(C(=O)NS(=O)(=O)c4ccc(NCC5CCOCC5)c([N+](=O)[O-])c4)c(Oc4cnc5[nH]ccc5c4)c3)CC2)=C(c2ccc(Cl)cc2)C1 [Venetoclax]; conditions: max 1 µM
Procedure, shortened: as §1

SG3199 = compound: CC1=CN2[C@@H](C1)C=NC3=CC(=C(C=C3C2=O)OC)OCCCCCOC4=C(C=C5C(=C4)N=C[C@@H]6CC(=CN6C5=O)C)OC [SG3199]; conditions: max 0.001 µM
Procedure, shortened: as §1

AZD2811 = compound: CCN(CCO)CCCOc1ccc2c(Nc3cc(CC(=O)Nc4cccc(F)c4)[nH]n3)ncnc2c1 [AZD2811]; conditions: max 1 µM
Procedure, shortened: as §1

SN-38 = compound: CCc1c2c(nc3ccc(O)cc13)-c1cc3c(c(=O)n1C2)COC(=O)[C@]3(O)CC [SN-38]; conditions: max 0.3 µM
Procedure, shortened: as §1

AZD0156 = compound: CN(C)CCCOc1ccc(-c2ccc3ncc4c(c3c2)n(C2CCOCC2)c(=O)n4C)cn1 [AZD0156]
Procedure, shortened: as §1

AZD4320 = compound: CN(CC[C@H](CSC1=CC=CC=C1)NC2=C(C=C(C=C2)S(=O)(=O)NC(=O)C3=CC=C(C=C3)N4CCC(CC4)[C@H](C5=CC=CC=C5C6=CC=C(C=C6)Cl)O)S(=O)(=O)C(F)(F)F)CCO [AZD4320]; conditions: max 1 µM
Procedure, shortened: as §1

Alisertib = compound: COc1cc(Nc2ncc3c(n2)-c2ccc(Cl)cc2C(c2c(F)cccc2OC)=NC3)ccc1C(=O)O [Alisertib]; conditions: max 10 µM
Procedure, shortened: as §1

Prexasertib = compound: COc1cccc(OCCCN)c1-c1cc(Nc2cnc(C#N)cn2)n[nH]1 [Prexasertib]; conditions: max 1 µM
Procedure, shortened: as §1

Doxorubicin = compound: COc1cccc2c1C(=O)c1c(O)c3c(c(O)c1C2=O)C[C@@](O)(C(=O)CO)C[C@@H]3O[C@H]1C[C@H](N)[C@H](O)[C@H](C)O1 [Doxorubicin]; conditions: max 1 µM
Procedure, shortened: as §1

AZD8186 = compound: C[C@@H](Nc1cc(F)cc(F)c1)c1cc(C(=O)N(C)C)cc2c(=O)cc(N3CCOCC3)oc12 [AZD8186]
Procedure, shortened: as §1

AZD6738 = compound: C[C@@H]1COCCN1C2=NC(=NC(=C2)C3(CC3)[S@](=N)(=O)C)C4=C5C=CNC5=NC=C4 [AZD6738]; conditions: max 10 µM
Procedure, shortened: as §1

AZD5991 = compound: Cc1c2c(nn1C)CSCc1cc(n(C)n1)CSc1cc(c3ccccc3c1)OCCCc1c(C(=O)O)n(C)c3c-2c(Cl)ccc13 [AZD5991]; conditions: max 1 µM
Procedure, shortened: as §1

AZD7648 = compound: Cc1cc2ncnn2cc1Nc1ncc2c(n1)n(C1CCOCC1)c(=O)n2C [AZD7648]; conditions: max 10 µM
Procedure, shortened: as §1

Taselisib = compound: Cc1nc(-c2cn3c(n2)-c2ccc(-c4cnn(C(C)(C)C(N)=O)c4)cc2OCC3)n(C(C)C)n1 [Taselisib]; conditions: max 10 µM
Procedure, shortened: as §1

Selumetinib = compound: Cn1cnc2c(F)c(Nc3ccc(Br)cc3Cl)c(C(=O)NOCCO)cc21 [Selumetinib]
Procedure, shortened: as §1

Olaparib = compound: O=C(c1cc(Cc2n[nH]c(=O)c3ccccc23)ccc1F)N1CCN(C(=O)C2CC2)CC1 [Olaparib]; conditions: max 10 µM
Procedure, shortened: as §1

Carboplatin = compound: C1CC(C1)(C(=O)[O-])C(=O)[O-].N.N.[Pt+2] [Carboplatin]; conditions: max 10 µM
Procedure, shortened: as §1

AZD5363 = compound: C1CN(CCC1(C(=O)N[C@@H](CCO)C2=CC=C(C=C2)Cl)N)C3=NC=NC4=C3C=CN4 [AZD5363]; conditions: max 10 µM
Procedure, shortened: as §1

Paclitaxel = compound: CC(=O)O[C@H]1C(=O)[C@@]2(C)[C@H]([C@H](OC(=O)c3ccccc3)[C@]3(O)C[C@H](OC(=O)[C@H](O)[C@@H](NC(=O)c4ccccc4)c4ccccc4)C(C)=C1C3(C)C)[C@]1(OC(C)=O)CO[C@@H]1C[C@@H]2O [Paclitaxel]; conditions: max 3 µM
Procedure, shortened: as §1

Palbociclib = compound: CC(=O)c1c(C)c2cnc(Nc3ccc(N4CCNCC4)cn3)nc2n(C2CCCC2)c1=O [Palbociclib]; conditions: max 10 µM
Procedure, shortened: as §1

AZD1390 = compound: CC(C)n1c(=O)n(C)c2cnc3cc(F)c(-c4ccc(OCCCN5CCCCC5)nc4)cc3c21 [AZD1390]; conditions: max 0.3 µM
Procedure, shortened: as §1

Dasatinib = compound: CC1=C(C(=CC=C1)Cl)NC(=O)C2=CN=C(S2)NC3=CC(=NC(=N3)C)N4CCN(CC4)CCO [Dasatinib]; conditions: max 2 µM
Procedure, shortened: as §1

Etoposide = compound: COc1cc([C@@H]2c3cc4c(cc3[C@@H](O[C@@H]3O[C@@H]5CO[C@@H](C)O[C@H]5[C@H](O)[C@H]3O)[C@H]3COC(=O)[C@H]23)OCO4)cc(OC)c1O [Etoposide]; conditions: max 10 µM
Procedure, shortened: as §1

Gefitinib = compound: COc1cc2ncnc(Nc3ccc(F)c(Cl)c3)c2cc1OCCCN1CCOCC1 [Gefitinib]; conditions: max 10 µM
Procedure, shortened: as §1

AZD5153 = compound: COc1nnc2ccc(N3CCC(c4ccc(OCCN5CCN(C)C(=O)[C@H]5C)cc4)CC3)nn12 [AZD5153]; conditions: max 1 µM
Procedure, shortened: as §1

Lapatinib = compound: CS(=O)(=O)CCNCc1ccc(-c2ccc3ncnc(Nc4ccc(OCc5cccc(F)c5)c(Cl)c4)c3c2)o1 [Lapatinib]; conditions: max 10 µM
Procedure, shortened: as §1

Crizotinib = compound: C[C@@H](Oc1cc(-c2cnn(C3CCNCC3)c2)cnc1N)c1c(Cl)ccc(F)c1Cl [Crizotinib]; conditions: max 10 µM
Procedure, shortened: as §1

Savolitinib = compound: C[C@@H](c1ccc2nccn2c1)n1nnc2ncc(-c3cnn(C)c3)nc21 [Savolitinib]; conditions: max 1 µM
Procedure, shortened: as §1

SRA737 = compound: N#Cc1cnc(Nc2cc(NC[C@H]3CNCCO3)c(C(F)(F)F)cn2)cn1 [SRA737]; conditions: max 10 µM
Procedure, shortened: as §1

MK-2206 = compound: NC1(c2ccc(-c3nc4ccn5c(=O)[nH]nc5c4cc3-c3ccccc3)cc2)CCC1 [MK-2206]; conditions: max 10 µM
Procedure, shortened: as §1

Gemcitabine = compound: Nc1ccn([C@@H]2O[C@H](CO)[C@@H](O)C2(F)F)c(=O)n1 [Gemcitabine]; conditions: max 0.3 µM
Procedure, shortened: as §1

[1] = compound: O=C(Nc1ccc2[nH]nc(-c3ccncc3)c2c1)[C@@H]1CCN(CC(=O)N2CCN(c3ccc(-c4ncccn4)cc3)CC2)C1; conditions: max 5 µM
Procedure, shortened: as §1

5-Fluorouracil = compound: O=c1[nH]cc(F)c(=O)[nH]1 [5-Fluorouracil]; conditions: max 20 µM
Procedure, shortened: as §1

Cell Line	IC50, cell viability 72 h (Capivasertib) [nM]	IC50, cell viability 72 h (AZD1775; max 1 µM) [nM]	IC50, cell viability 72 h (Trametinib) [nM]	IC50, cell viability 72 h (Venetoclax) [nM]	IC50, cell viability 72 h (SG3199) [nM]	IC50, cell viability 72 h (AZD2811) [nM]	IC50, cell viability 72 h (SN-38) [nM]	IC50, cell viability 72 h (AZD0156; max 1 µM) [nM]	IC50, cell viability 72 h (AZD4320) [nM]	IC50, cell viability 72 h (Alisertib) [nM]	IC50, cell viability 72 h (Prexasertib) [nM]	IC50, cell viability 72 h (Doxorubicin) [nM]	IC50, cell viability 72 h (AZD8186; max 3 µM) [nM]	IC50, cell viability 72 h (AZD6738) [nM]	IC50, cell viability 72 h (AZD5991) [nM]	IC50, cell viability 72 h (AZD7648) [nM]	IC50, cell viability 72 h (Taselisib) [nM]	IC50, cell viability 72 h (Selumetinib; max 3 µM) [nM]	IC50, cell viability 72 h (Olaparib) [nM]	IC50, cell viability 72 h (Carboplatin) [nM]	IC50, cell viability 72 h (AZD5363) [nM]	IC50, cell viability 72 h (AZD1775; max 3 µM) [nM]	IC50, cell viability 72 h (Paclitaxel) [nM]	IC50, cell viability 72 h (Palbociclib) [nM]	IC50, cell viability 72 h (AZD1390) [nM]	IC50, cell viability 72 h (Dasatinib) [nM]	IC50, cell viability 72 h (AZD0156; max 3 µM) [nM]	IC50, cell viability 72 h (Etoposide) [nM]	IC50, cell viability 72 h (Gefitinib) [nM]	IC50, cell viability 72 h (AZD5153) [nM]	IC50, cell viability 72 h (Lapatinib) [nM]	IC50, cell viability 72 h (AZD8186; max 10 µM) [nM]	IC50, cell viability 72 h (Crizotinib) [nM]	IC50, cell viability 72 h (Savolitinib) [nM]	IC50, cell viability 72 h (Selumetinib; max 10 µM) [nM]	IC50, cell viability 72 h (SRA737) [nM]	IC50, cell viability 72 h (MK-2206) [nM]	IC50, cell viability 72 h (Gemcitabine) [nM]	IC50, cell viability 72 h [1] [nM]	IC50, cell viability 72 h (5-Fluorouracil) [nM]
CTB-1 (B-Cell Non-Hodgkin's Lymphoma)	> 3000	388	> 1000	> 1000	> 1	249	7.48	> 1000	> 1000	435	16.4	248	> 3000	2010	> 1000	> 10000	> 10000	> 3000	> 10000																					
RKO (Colorectal Carcinoma)			75.3	> 1000	> 1	> 1000	16.5		> 1000	7230	35.4	240		2040	> 1000	> 10000	2950		> 10000	> 10000	5240	787	3.91	> 10000	> 300	> 2000	> 3000	6790	> 10000	67.2	> 10000	> 10000	9500	> 1000	6520	7180	> 10000	9.84	797	8590
RPMI-6666 (Non-Cancerous)			> 1000	174	> 1	469	2.31		37.1	406	5.81	58.3		3900	731	> 10000	621		> 10000	> 10000	2950	234	3.63	8620	> 300	170	> 3000	401	> 10000	154	> 10000	1330	6930	> 1000	> 10000	2460	4640	5.75	> 5000	3430
RT-112 (Bladder Carcinoma)			305	> 1000	> 1	> 1000	255		> 1000	2220	31.2	> 1000		4410	413	> 10000	2950		> 10000	> 10000	> 10000	549	9.52	> 10000	> 300	> 2000	> 3000	> 10000	> 10000	> 1000	> 10000	> 10000	> 10000	> 1000	> 10000	> 10000	> 10000	291	3600	> 20000
SH-4 (Melanoma)			2.59	> 1000	> 1	> 1000	> 300		> 1000	> 10000	187	> 1000		> 10000	> 1000	> 10000	> 10000		> 10000	> 10000	> 10000	1490	2550	> 10000	> 300	> 2000	> 3000	> 10000	> 10000	432	> 10000	> 10000	> 10000	> 1000	259	> 10000	> 10000	> 300	111	> 20000
SIMA (Neuroblastoma)	> 3000			> 1000	> 1	> 1000	3.66		299		7.67	706	> 3000	2350	> 1000	> 10000		> 3000	> 10000			211					> 3000													
